Source: patent US7728155B2, “Dihydrobenzofuranyl alkanamines and methods for using same as cns agents” (Wyeth LLC, priority 2003, dated 2010)
Counter-ions that a name gives are not always drawn. Like-named read-outs stand apart in the source and are kept apart here.

What was measured:
human 5-HT2C receptor = biological target: T1, human 5-HT2C receptor (Homo sapiens, UniProt P28335); assay: 5-HT2C receptor-stimulated calcium mobilization (FLIPR) in CHO cells; assay type: cell-based; conditions: for Emax: CHO, read-out: 5-HT2C Function Emax (%); for EC50: calcium mobilization, CHO cells expressing human 5-HT2C, read-out: 5-HT2C Function EC50
T1 sequence (P28335 33-458): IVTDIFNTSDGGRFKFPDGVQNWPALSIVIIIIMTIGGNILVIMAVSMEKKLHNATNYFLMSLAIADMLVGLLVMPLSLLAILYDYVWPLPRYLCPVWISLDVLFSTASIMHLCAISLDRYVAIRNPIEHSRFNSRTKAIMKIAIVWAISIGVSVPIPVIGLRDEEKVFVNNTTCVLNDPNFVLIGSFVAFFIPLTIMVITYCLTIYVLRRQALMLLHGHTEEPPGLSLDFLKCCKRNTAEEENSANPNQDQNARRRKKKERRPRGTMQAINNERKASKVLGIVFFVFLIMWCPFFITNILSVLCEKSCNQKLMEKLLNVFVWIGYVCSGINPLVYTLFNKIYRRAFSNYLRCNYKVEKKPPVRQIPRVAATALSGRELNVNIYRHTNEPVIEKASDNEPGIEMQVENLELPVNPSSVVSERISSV

[1] = biological target: T2, human 5-hydroxytryptamine-2C (h5-HT2C) receptor (Homo sapiens, UniProt P28335); assay: [125I]DOI binding affinity at h5-HT2C receptor, CHO cell membranes; conditions: for Ki: [125I]DOI displacement, CHO membranes expressing h5-HT2C
T2 construct: expressed in transfected cells; host or cells: CHO (Chinese Hamster Ovary) cells; membranes
T2 sequence (P28335 33-458): T1 sequence (P28335 33-458)

[2] = percentage of the response to a maximally effective concentration of 5-HT

Compound	Emax (human 5-HT2C receptor; [2]) [%]	EC50 (human 5-HT2C receptor) [nM]	Ki ([1]; read-out: 5-HT2C Affinity Ki) [nM]	5-HT2C Function Emax (%) (human 5-HT2C receptor; [2])	other results
NCC1Cc2ccc3c(c2O1)CCC3 (racemic) (as salt: hydrochloride) [Example 1, (±)-1-(3,6,7,8-tetrahydro-2H-indeno[4,5-b]furan-2-yl)methanamine]					melting point: > 230 °C (dec.)
NCC1Cc2ccc3c(c2O1)CCC3 (racemic) [Example 1, (±)-1-(3,6,7,8-tetrahydro-2H-indeno[4,5-b]furan-2-yl)methanamine]	90	31	10		
NCC1Cc2ccc3c(c2O1)CCCC3 (racemic) [Example 4, (±)-1-(2,3,6,7,8,9-hexahydronaphtho[1,2-b]furan-2-yl)methanamine]	80	76	8		
Cc1cc2c(c3c1CCC3)OC(CN)C2 (racemic) [Example 7, (±)-1-(5-methyl-3,6,7,8-tetrahydro-2H-indeno[4,5-b]furan-2-yl)methanamine]	95	19	6		
NCC1Cc2ccc3ccccc3c2O1 (racemic) [Example 10, (±)-1-(2,3-dihydronaphtho[1,2-b]furan-2-yl)methanamine]	90	20	29		
NCC1Cc2cc3c(cc2O1)CCCC3 (racemic) [Example 13, (±)-1-(2,3,5,6,7,8-hexahydronaphtho[2,3-b]furan-2-yl)methanamine]			99		
NCC1Cc2c(ccc3c2CCCC3)O1 (racemic) [Example 14, (±)-1-(1,2,6,7,8,9-hexahydronaphtho[2,1-b]furan-2-yl)methanamine]	100	34	19		
COc1cc2c(c3c1C1CCC3CC1)OC(CN)C2 (racemic) [Example 19, (±)-1-(5-methoxy-2,3,6,7,8,9-hexahydro-6,9-ethanonaphtho[1,2-b]furan-2-yl)methanamine]	100	25	7		
NCC1Cc2cc(Cl)c3ccccc3c2O1 (racemic) [Example 23, (±)-1-(5-chloro-2,3-dihydronaphtho[1,2-b]furan-2-yl)methanamine]	90	28	5		
CNCC1Cc2cc(Cl)c3ccccc3c2O1 (racemic) [Example 24, (±)-1-(5-chloro-2,3-dihydronaphtho[1,2-b]furan-2-yl)-N-methylmethanamine]	60	91	7		
NCC1Cc2c(Cl)cc3c(c2O1)CCC3 (racemic) [Example 25, (±)-1-(4-chloro-3,6,7,8-tetrahydro-2H-indeno[4,5-b]furan-2-yl)methanamine]	80	4.4	12		
NCC1Cc2cc(Cl)c3c(c2O1)CCC3 (racemic) [Example 29, (±)-1-(5-chloro-3,6,7,8-tetrahydro-2H-indeno[4,5-b]furan-2-yl)methanamine]	100	5.8	4		
COc1cc2c(c3c1C1CCC3C1)OC(CN)C2 (single isomer, unassigned) [Example 16, (9-methoxy-4-oxatetracyclo[9.2.1.0^2,10.0^3,7]tetradeca-2,7,9-trien-5-yl)methylamine]			85		
COc1cc2c(c3c1C1CCC3C1)OC(CN)C2 (single isomer, unassigned) [Example 17, (9-methoxy-4-oxatetracyclo[9.2.1.0^2,10.0^3,7]tetradeca-2,7,9-trien-5-yl)methylamine]	100	10	8		
COc1cc2c(c3c1C1CCC3C1)OC(CN)C2 (single isomer, unassigned) [Example 18, (9-methoxy-4-oxatetracyclo[9.2.1.0^2,10.0^3,7]tetradeca-2,7,9-trien-5-yl)methylamine]			82		
C[C@@H](N)[C@H]1Cc2ccc3c(c2O1)CCC3 (single isomer, unassigned) [Example 22, (2R*)-1-[(2R*)-3,6,7,8-tetrahydro-2H-indeno[4,5-b]furan-2-yl]ethylamine]		15			Emax (human 5-HT2C receptor): 80%; Ki ([1]; 5-HT2C Affinity Ki (nM)): 13 nM
NCC1Cc2ccc3c(c2O1)CCC3 (single isomer, unassigned; (+)) [Example 2, (+)-1-(3,6,7,8-tetrahydro-2H-indeno[4,5-b]furan-2-yl)methanamine]		8	28	75	

Compound	Emax (human 5-HT2C receptor; [2]) [%]	EC50 (human 5-HT2C receptor) [nM]	Ki ([1]; read-out: 5-HT2C Affinity Ki) [nM]	5-HT2C Function Emax (%) (human 5-HT2C receptor; [2])	other results
NCC1Cc2ccc3c(c2O1)CCCC3 (single isomer, unassigned; (+)) [Example 5, (+)-1-(2,3,6,7,8,9-hexahydronaphtho[1,2-b]furan-2-yl)methanamine]		38	17	70	
Cc1cc2c(c3c1CCC3)OC(CN)C2 (single isomer, unassigned; (+)) [Example 8, (+)-1-(5-methyl-3,6,7,8-tetrahydro-2H-indeno[4,5-b]furan-2-yl)methanamine]	100	8.3	6		
NCC1Cc2ccc3ccccc3c2O1 (single isomer, unassigned; (+)) [Example 11, (+)-1-(2,3-dihydronaphtho[1,2-b]furan-2-yl)methanamine]		5.7	15	65	
COc1cc2c(c3c1C1CCC3CC1)OC(CN)C2 (single isomer, unassigned; (+)) [Example 20, (+)-1-(5-methoxy-2,3,6,7,8,9-hexahydro-6,9-ethanonaphtho[1,2-b]furan-2-yl)methanamine]		91	22	60	
NCC1Cc2c(Cl)cc3c(c2O1)CCC3 (single isomer, unassigned; (+)) [Example 27, (+)-1-(4-chloro-3,6,7,8-tetrahydro-2H-indeno[4,5-b]furan-2-yl)methanamine]		56	4	60	
NCC1Cc2cc(Cl)c3c(c2O1)CCC3 (single isomer, unassigned; (+)) [Example 31, (+)-1-(5-chloro-3,6,7,8-tetrahydro-2H-indeno[4,5-b]furan-2-yl)methanamine]		10	1	40	
NCC1Cc2ccc3c(c2O1)CCC3 (single isomer, unassigned; (-)) [Example 3, (−)-1-(3,6,7,8-tetrahydro-2H-indeno[4,5-b]furan-2-yl)methanamine]		0.9	5	100	
NCC1Cc2ccc3c(c2O1)CCCC3 (single isomer, unassigned; (-)) [Example 6, (−)-1-(2,3,6,7,8,9-hexahydronaphtho[1,2-b]furan-2-yl)methanamine]		3	11	100	
Cc1cc2c(c3c1CCC3)OC(CN)C2 (single isomer, unassigned; (-)) [Example 9, (−)-1-(5-methyl-3,6,7,8-tetrahydro-2H-indeno[4,5-b]furan-2-yl)methanamine]		11	11	100	
NCC1Cc2ccc3ccccc3c2O1 (single isomer, unassigned; (-)) [Example 12, (−)-1-(2,3-dihydronaphtho[1,2-b]furan-2-yl)methanamine]		2	16	90	
COc1cc2c(c3c1C1CCC3CC1)OC(CN)C2 (single isomer, unassigned; (-)) [Example 21, (−)-1-(5-methoxy-2,3,6,7,8,9-hexahydro-6,9-ethanonaphtho[1,2-b]furan-2-yl)methanamine]		0.8	4	90	
NCC1Cc2c(Cl)cc3c(c2O1)CCC3 (single isomer, unassigned; (-)) [Example 26, (−)-1-(4-chloro-3,6,7,8-tetrahydro-2H-indeno[4,5-b]furan-2-yl)methanamine]	80	88	16		
NCC1Cc2cc(Cl)c3c(c2O1)CCC3 (single isomer, unassigned; (-)) [Example 30, (−)-1-(5-chloro-3,6,7,8-tetrahydro-2H-indeno[4,5-b]furan-2-yl)methanamine]		234	6	80	
COc1cc2c(c3c1C1CCC3C1)OC(CN)C2 (stereo not drawn) [Example 15, (9-methoxy-4-oxatetracyclo[9.2.1.0^2,10.0^3,7]tetradeca-2,7,9-trien-5-yl)methylamine]	100	17	9		
CSc1ccc2c(c1)C(N1CCN(C)CC1)Cc1ccccc1S2 (stereo not drawn) [Methiothepin, reference compound]					Ki ([1]; reference compounds, read-out: Ki (95% confidence interval)): 4.6 nM
COc1cc(CC(C)N)c(OC)cc1I (stereo not drawn) [[^125I] DOI, reference compound]					Kd ([1]; saturation binding with increasing concentrations of [125I]DOI, read-out: dissociation constant, KD): 0.4 nM
